Test results taken from patent publication US20070244076A1, “Site and Rate Selective Prodrug Formulations of D609 with Antioxidant and Anticancer Activity” (priority 2003, published 2007).
Where a name gives a salt, the structure may show the parent alone. Numbered stars: 1 amine (or outer) side, 2 acyl side, 3 side chain; on linkers, the order of the positions; unused ones are H or OH. Bridge positions count the residues as written; N and C are the ends. Square brackets hold non-standard residues; d marks the D form. Peptide text beside a SMILES is read from it. I, II: the chains in the order shown. Actinocin(9to1) = Cc1c2oc3c(C)ccc(C(=O)[*:1])c3nc-2c(C(=O)[*:2])c(N)c1=O; NMeV = CN[C@H](C(=O)O)C(C)C; Sar = CNCC(=O)O

Tests used:
[1] = cited from earlier work
[2] = previously untreated chronic myelogenous leukemia; cited from earlier work
[3] = Chevion et al., 1997; cited from earlier work
[4] = test system: U937 cells; assay: U937 apoptosis, Annexin V-FITC staining and flow cytometry; type: cell-based, Human; conditions: for induction of apoptosis: 24 hr, low dose of H7 (25 μM) or ceramide (5 μM)
Method: It is well known that ceramide functions as a negative cell regulator that can induce cell cycle arrest, senescence or apoptosis. In contrast, DAG stimulates cell proliferation and promotes cell survival, primarily via activation of PKC. To determine if the changes in the levels of ceramide and DAG resulting from SMS inhibition contribute to D609-induced apoptosis in U937 cells, the cells were incubated with vehicle, H7 (a PKC inhibitor), ceramide, or H7 plus ceramide. U937 cells (1×10^6/ml) were incubated with 5 μM C6-ceramide and 25 μM H7 alone or combination for 24 hr at 37° C. Apoptosis of the cells was measured by Annexin V-FITC staining and flow cyotmetry and expressed as percent of Annexin V positive cells. a, p<0.05 vs Control; b, p<0.05 vs H7- or C6-treated cells (FIG. 11).
In these experiments, U937 cells were pre-incubated with PMA (25 nM) for 30 min. and then were cultured with vehicle or D609 (150 μM) for 24 hrs.

[5] = target: phospholipase C (Type XI from B. cereus) (Bacillus cereus, UniProt P09598); type: biochemical; conditions: 2 hrs at 37° C., pNPP 40 mM
Method: (§1) In this study, p-nitrophenyl-phosphorylcholine (pNPP, 40 mM) was incubated with 2 U/ml phospholipase C (Type XI from B. cereus) in the presence or absence of various concentrations of inhibitors for 2 hrs at 37° C. The amount of the cleaved substrate pNPP was quantified by determination of the optical density at 410 nm using an ELISA reader. The results are expressed as percent of vehicle control and presented as means±SEM (n=3) (FIG. 9A). NBD-C6-ceramide and PC were incubated with U937 cell lysates containing 50 μg protein in the presence or absence of various concentrations of inhibitors for 30 min at 30° C. The formation of NBD-C6-sphingomyelin as analyzed by TLC and quantified by determination of the fluorescent intensity of NBD-C6-sphingomyelin using a phosphorimager. The results are expressed as percent of vehicle control (FIG. 9B). U937 cells were incubated with different concentrations of inhibitors for 48 hours.

[6] = test system: sphingomyelin synthase (SMS); assay: SMS activity in U937 cell lysates with inhibitor added (cell lysate-based in vitro assay); type: biochemical, Human; conditions: 30 min at 30° C.
Method: as §1

[7] = test system: Porcine liver esterase (PLE); assay: Esterase-catalyzed hydrolysis of D609 prodrugs; type: in vitro ADME; conditions: for T1/2 / kobs: 300 μM, 0.1 unit/ml PLE, 37° C., pH 7.4
Method: FIG. 18A, FIG. 18B, FIG. 18C: Esterase-catalyzed hydrolysis of D609 prodrugs. Prodrugs (300 μM in 15% DMSO/PBS, pH 7.4), 1 (FIG. 18A), 2 (FIG. 18B) and 3 (FIG. 18C), were incubated at 37° C. in the presence of 0.1 unit/ml PLE. […] The data are presented as the mean±SEM of three independent assays.
To determine the hydrolytic property of D609 prodrugs 1, 2, and 3 (300 μM in 15% DMSO/PBS, pH7.4), these prodrugs were incubated with 0.1 unit/ml PLE at 37° C. After various times during incubation, the rate of hydrolysis of these D609 prodrugs was monitored by HPLC analysis. […] The concentration of D609 (μM) was calculated based on a linear D609-DTNB standard curve. The pseudo-first-order plots for the hydrolysis of these prodrugs were constructed from the logarithm of remaining ester versus time (FIG. 18). The end points of the reaction (150 min) were defined as when the hydrolysis of these prodrugs was over 99% complete and the release of D609 reached plateau. The pseudo-first-order rate constant (Kobs) and T1/2 (=0.693/Kobs) were calculated based on the slope of the linear portion of the curve for each of these prodrugs and are presented in Table 1 (Gilmer et al., 2002).

[8] = test system: alkaline phosphatase; conditions: 222 μM, 3.125 U/ml, pH 9.0, 37° C.
[9] = cited from earlier work; remark: listed apart in the source

Sequence of phospholipase C (Type XI from B. cereus) (P09598 39-283 limits assumed): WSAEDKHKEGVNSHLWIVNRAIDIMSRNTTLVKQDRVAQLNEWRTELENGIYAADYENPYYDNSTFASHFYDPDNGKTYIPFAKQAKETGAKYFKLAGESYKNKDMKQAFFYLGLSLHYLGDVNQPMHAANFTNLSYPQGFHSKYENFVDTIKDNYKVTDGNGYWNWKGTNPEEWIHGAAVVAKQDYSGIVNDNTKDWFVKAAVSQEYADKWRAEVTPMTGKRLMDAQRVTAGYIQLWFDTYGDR

In the case of `O=C(O)CCCc1ccc(N(CCCl)CCCl)cc1` [Chlorambucil, 4-[bis(2-chlorethyl)amino] benzenebutanoic acid], the oral absorption ([1]; in vivo) is given as “rapidly and completely absorbed from the gastrointestinal tract”.
For `O=NN(CCCl)C(=O)NC1CCCCC1` [Lomustine, 1-(2-chloro-ethyl)-3-cyclohexyl-1 nitrosourea], the “radioactivity excreted as degradation products” value ([1]; oral, 30 mg/m^2 to 100 mg/m^2, within 24 hours) is given as “about half”.
In the case of `CS(=O)(=O)OCCCCOS(C)(=O)=O` [Busulfan, 1,4-butanediol dimethanesulfonate], the “adults obtaining hematologic remission” value [2] is listed as “Approximately 90%”.
In the case of `O=C1O[C@H]([C@@H](O)CO)C(O)=C1O` [vitamin C], the E1/2 [3] is given as 380 mV.
For `CC1CNCCN1S(=O)(=O)c1cccc2cnccc12` (stereo not shown) [Prodrug H7], the induction of apoptosis [4] was “modest”.
For `S=C(S)OC1CCCCC1` [cyclohexyl xanthate], the “inhibition of PC-PLC activity” value [5] was “dose-dependently inhibited” and the “inhibition of SMS activity” value [6] was “had no effect”.
For `CC[C@]1(O)C[C@H]2CN(CCc3c([nH]c4ccccc34)[C@@](C(=O)OC)(c3cc4c(cc3OC)N(C=O)[C@H]3[C@@](O)(C(=O)OC)[C@H](OC(C)=O)[C@]5(CC)C=CCN6CC[C@]43[C@@H]65)C2)C1` [Vincristine], the oral absorption ([1]; in vivo) is given as “Unpredictable absorption” and the terminal half-life ([1]; plasma) is given as “about 24 hours”.
In the case of `CC[C@]1(O)C[C@@H]2CN(CCc3c([nH]c4ccccc34)[C@@](C(=O)OC)(c3cc4c(cc3OC)N(C)[C@H]3[C@@](O)(C(=O)OC)[C@H](OC(C)=O)[C@]5(CC)C=CCN6CC[C@]43[C@@H]65)C2)C1` [Vinblastine], the oral absorption ([1]; in vivo) is given as “Unpredictable absorption”, the “excreted intact into the urine” value ([1]; in vivo) is given as “Approximately 15%” and the “recovered in the feces after biliary excretion” value ([1]; in vivo) is given as “about 10%”. For the same compound, the “plasma half-life after distribution (first)” value ([1]; intravenous injection) was “approximately 1 hours”, the “plasma half-life after distribution (second)” value ([1]; intravenous injection) was roughly 72000 s and the “peak concentration in plasma” value ([1]; usual clinical doses) was “approximately 0.4 mM”.
Compound `CC(=O)OCSC(=S)OC1CC2CC1C1CCCC21` (stereo not shown) [Prodrug 1, S-methyleneoxyacetyl D609] has a T1/2 [7] of 3.34 min and a kobs [7] of 0.2074 min⁻¹.
For `COc1cccc2c1C(=O)c1c(O)c3c(c(O)c1C2=O)C[C@@](O)(C(C)=O)C[C@@H]3O[C@H]1C[C@H](N)[C@H](O)[C@H](C)O1` [Daunorubicin, 5,12-Naphthacenedione, (8S-cis)-8-acetyl-10-[(3-amino-2,3,6-trideoxy-a-L-lyxo-hexanopyranosyl)oxy]-7,8,9,10-tetrahydro-6,8,11 trihydroxy-10-methoxy-, hydrochloride], the oral absorption ([1]; in vivo) is listed as “Oral absorption is poor” and the “half-life (elimination)” value ([1]; in vivo) is listed as “about 19 hr”.
In the case of `OC1CC2CC1C1CCCC21` (stereo not shown) [Tricyclodecanol], the “inhibition of PC-PLC activity” value [5] is reported as “devoid of any of these activities” and the “inhibition of SMS activity” value [6] is reported as “devoid of any of these activities”.
For `Cc1c2oc3c(C)ccc(C(=O)N[C@@H]4C(=O)N[C@H](C(C)C)C(=O)N5CCC[C@H]5C(=O)N(C)CC(=O)N(C)[C@@H](C(C)C)C(=O)O[C@@H]4C)c3nc-2c(C(=O)N[C@@H]2C(=O)N[C@H](C(C)C)C(=O)N3CCC[C@H]3C(=O)N(C)CC(=O)N(C)[C@@H](C(C)C)C(=O)O[C@@H]2C)c(N)c1=O` [Actinomycin D] (I: T[dV]P[Sar][NMeV] / II: T[dV]P[Sar][NMeV]; ester I:1-I:C, II:1-II:C; linker I:N-II:N via Actinocin(9to1)), the “excreted intact into the bile” value ([1]; in vivo) is listed as “Half of the dose”, the “excreted intact into the urine” value ([1]; in vivo) is listed as 10% and the “half-life (elimination)” value ([1]; in vivo) is listed as “about 36 hr”. The “passage of the blood-brain barrier” value ([1]; in vivo) was “does not pass the blood-brain barrier”.
For `N.N.[Cl][Pt][Cl]` [Cisplatin], the oral absorption ([1]; in vivo) is given as “not absorbed orally”.
In the case of `COc1cccc2c1C(=O)c1c(O)c3c(c(O)c1C2=O)C[C@@](O)(C(=O)CO)C[C@@H]3O[C@H]1C[C@H](N)[C@H](O)[C@H](C)O1` [Doxorubicin, 5,12-Naphthacenedione, (8s-cis)-10-[(3-amino-2,3,6-trideoxy-α-L-lyxo-hexopyranosyl)oxy]-7,8,9,10-tetrahydro-6,8,11-trihydroxy-8-(hydroxyacetyl)-1-methoxy-hydrochloride], the oral absorption ([1]; in vivo) is listed as “absorbed poorly” and the “half-life (elimination)” value ([1]; in vivo) is listed as “about 30 hr”.
For `CC(C)(C)C(=O)OCSC(=S)OC1CC2CC1C1CCCC21` (stereo not shown) [Prodrug 3, S-methyleneoxypivalyl D609], the T1/2 [7] was 23.22 min, the kobs [7] was 0.02984 min⁻¹ and the “% D609 (molar recovery of D609)” value ([7]; complete hydrolysis by esterase) was 60%.
In the case of `CCCCCCCCCCCCCC(=O)O[C@@H]1[C@@H](C)[C@@]2(O)[C@@H](C=C(CO)C[C@]3(O)C(=O)C(C)=C[C@@H]23)[C@@H]2C(C)(C)[C@]12OC(C)=O` [PMA], the “effect on D609-induced apoptosis” value ([4]; PMA 25 nM 30 min before D609 150 μM, 24 hrs) is reported as “partially attenuated D609-induced apoptosis”.
For `COc1cccc2c1C(=O)c1c(O)c3c(c(O)c1C2=O)C[C@@](O)([C@H](C)O)C[C@@H]3O[C@H]1C[C@H](N)[C@H](O)[C@H](C)O1` [daunorubicinol], the “half-life (elimination)” value ([1]; in vivo) is given as “about 27 hr”.
In the case of `CCCCCCCCCCCCCC=CC(O)C(CO)NC(=O)CCCCC` (stereo not shown) [ceramide], the induction of apoptosis [4] is reported as “modest”.
In the case of `CC(C)(C)OP(=O)(OCSC(=S)OC1CC2CC1C1CCCC21)OC(C)(C)C` (stereo not drawn) [compound 7, S-(methylenoxy)-D609, di(t-butoxy)phosphoryl], the “time to complete hydrolysis” value [8] is reported as no more than 60 min.
In the case of `CO[C@@]12[C@H](COC(N)=O)C3=C(C(=O)C(C)=C(N)C3=O)N1C[C@@H]1N[C@@H]12` [Mitomycin], the “time required to reduce the serum concentration by 50%” value ([9]; 30 mg. bolus injection) is given as 17 min and the “dose excreted unchanged in the urine” value ([9]; in vivo) is given as “Approximately 10%”.
